Experimental data: US20190352276A1, “INHIBITORS OF BRUTON'S TYROSINE KINASE” (Joint Stock Company "Biocad", priority 2016, published 2019)

Columns and labels:
[1] = Stability in human blood plasma; settings: 10 μM in pooled human blood plasma, incubated 4 hours at 37° C.
Description: To assess the blood plasma stability of the drug candidates, we used pooled human blood plasma taken from ten healthy donors. The initial solution (10 Mm in DMSO) was diluted with pooled blood plasma to 10 μM (test solution). The test solution had been incubated for 4 hours in a dry block heater at 37° C. We determined peak areas of the compounds corresponding to the start of the test (before incubating) and the end of the test (after incubating in a dry block heater at 37° C.) by HPLC using Agilent1200 chromatograph (Agilent, USA) with preliminary protein precipitation with acetonitrile. We used gradient elution (1 mL/min flow rate). We determined amount of substance in the sample in % after incubation.
We evaluated the stability of the compounds.

[2] = Chemical stability in artificial gastric fluid (SGF without enzymes); settings: 10 μM in SGF without enzymes, pH=1.4, 37° C.
[3] = tested on: Mino (mantle cell lymphoma); test: Antiproliferative activity, Mino cells (Alamar Blue); type: cell-based; settings: Homo sapiens, Table 10, 72 h, average of several tests
Description: (§1) Antiproliferative activity of BTK inhibitors was measured in cell-based bioassay on B-cells cultures: Mino (mantle cell lymphoma, ATCC® CRL-3000™), Z-138 (mantle cell lymphoma, ATCC® CRL-3001™) and DOHH2 (follicular lymphoma, Creative Bioarray CSC-C0219) using cell viability reagent Alamar Blue (Invitrogen, #DAL 1100). Cells were cultured in 10% FB S-supplemented (HyClone, #SH3008803/Gibco, #16140-071) RPMI-1640 (PanEco, #S330p) for at least 1 passage after thawing, washed with PBS and passaged in 96-well culture plates (Corning, #3599) with growth medium with 10% FBS (HyClone, #SH3008803/Gibco, #16140-071) and antibiotic (50 μg/ml of gentamicin (Biolot, #1.3.16))≈3*10^4 cells in 50 μl of medium per well.
(§2) The compounds were dissolved in DMSO and diluted with the assay medium to final concentrations ranging from […]. 150 μl of each diluted compound were then added to each well (final concentration of DMSO was less than 1%) and incubated at 37° C. in an incubator under 5% of CO2 for 72 h. After incubation, 20 μl of Alamar Blue reagent (Invitrogen, #DAL1100) were added to each well. The plates were shaked on an orbital shaker (Biosan, Latvia) and then incubated for 14-16 hours at 37° C. in the incubator.
(§3) The number of living cells were estimated, measuring the fluorescence signal at the excitation wavelength (REx) of 540 nm and the emission wavelength (λEm) of 590 nm on a microplate reader (Tecan Infinite M200Pro, Switzerland).
(§4) For each compound, IC50 was calculated using Magellan 7.2 software (Tecan, Switzerland) approximating experimental points by four-parameter logistic model with the optimization by Levenberg-Marquardt.

[4] = tested on: Z-138 (mantle cell lymphoma); test: Antiproliferative activity, Z-138 cells (Alamar Blue); type: cell-based; settings: Homo sapiens, Table 10, 72 h, average of several tests
Description: as §1, §2, §3, §4

[5] = General cytotoxicity on HepG2 cells (CC50; therapeutic index CC50 HepG2/IC50 Mino); type: cell-based; settings: human, HepG2 cells (hepatocellular carcinoma); Table 10; 72 hours, Alamar Blue; average of several tests
Description: (§5) The CC50 values were determined in the test for General cytotoxicity on HepG2 cells (hepatocellular carcinoma, ATCC® HB-8065™). 2*10^4 cells (in 50 μl) per well were seeded in 96-well plates (Corning, #3599) in DMEM medium (PanEco, #S420p), after 24 h of incubation 150 μl of candidate compounds were added to each well in the range of final concentrations from 200 μM to 4 μM and the plate was incubated in a total volume of 200 μl for 72 hours. Viability of the cells was assessed using Alamar Blue dye (Invitrogen, #DAL 1100). CC50 was determined similarly (table 10).
(§6) The relationship between toxic (CC50) and a therapeutic (IC50) effects of the dose is the therapeutic index, which can be expressed as the ratio between CC50 (HepG2) (general cytotoxicity of the candidate) and IC50 (Mino) (antiproliferative activity on the target cells): […]

[6] = tested on: HepG2 cells (hepatocellular carcinoma); test: as above; type: cell-based; settings: Table 10; therapeutic index
Description: as §5, §6

Compound | Amount of substance in the sample, % (stability in human blood plasma) [1] | Amount of substance in the sample in % (chemical stability) [2] | further results
C=CC(=O)N1CCC[C@@H](n2nc(-c3ccc(Oc4ccncc4)cc3)c3cncc(Cl)c32)C1 [BCD-BTK -125, (R)-1-(1-acryloylpiperidin-3-yl)-7-chloro-3-(4-(pyridin-4-yloxy)phenyl)-1H-pyrazolo[4,3-c]pyridine] | 97.8% |  | 
C=CC(=O)N1CCC[C@@H](n2nc(-c3ccc(Oc4ccncc4)cc3)c3c(N)ncc(C#N)c32)C1 [BCD-BTK -134, (R)-1-(1-acryloylpiperidin-3-yl)-4-amino-3-(4-(pyridin-4-yloxy)phenyl)-1H-pyrazolo[4,3-c]pyridin-7-carbonitrile] | 89.7% |  | 
C=CC(=O)N1CCC[C@@H](n2nc(-c3ccc(Oc4ccncc4)cc3)c3c(N)ncc(Cl)c32)C1 [BCD-BTK -139, (R)-1-(1-acryloylpiperidin-3-yl)-7-chloro-3-(4-(pyridin-4-yloxy)phenyl)-1H-pyrazolo[4,3-c]pyridin-4-amine] | 87.1% |  | 
C=CC(=O)N1CCC[C@@H](n2nc(-c3ccc(C(=O)Nc4ccc(F)cn4)cc3)c3c(N)ncc(Cl)c32)C1 [BCD-BTK -237, 4-{4-amino-7-chloro-1-[(3R)-1-(prop-2-enoyl)piperidin-3-yl]-1H-pyrazolo[4,3-c]pyridin-3-yl}-N-(5-fluoropyridin-2-yl)benzamide] | 95.5% | 100% | 
C=CC(=O)N1CCC[C@@H](n2nc(-c3ccc(C(=O)Nc4cccc(F)n4)cc3)c3c(N)ncc(Cl)c32)C1 [BCD-BTK -250, (R)-4-(1-(1-acryloylpiperidin-3-yl)-4-amino-7-chloro-1H-pyrazolo[4,3-c]pyridin-3-yl)-N-(6-fluoropyridin-2-yl)benzamide] | 84.5% |  | 
CC#CC(=O)N1CCC[C@@H](n2nc(-c3ccc(C(=O)Nc4ccccn4)cc3)c3c(N)ncc(Cl)c32)C1 [BCD-BTK -295, (R)-4-(4-amino-1-(1-(but-2-ynoyl)piperidin-3-yl)-7-chloro-1H-pyrazolo[4,3-c]pyridin-3-yl)-N-(pyridin-2-yl)benzamide] | 100.0% |  | 
C=CC(=O)N1CCC[C@@H](n2nc(-c3cnc(-n4ccc(=O)c(C#N)c4)nc3)c3cncc(Cl)c32)C1 [BCD-BTK-206, (R)-1-(5-(1-(1-acryloylpiperidin-3-yl)-7-chloro-1H-pyrazolo[4,3-c]pyridin-3-yl)pyrimidin-2-yl)-4-oxo-1,4-dihydropyridine-3-carbonitrile] | 87.6% |  | 
C=CC(=O)N1CCC[C@@H](n2nc(-c3cnc(-n4ccc(=O)c(C(N)=O)c4)nc3)c3cncc(Cl)c32)C1 [BCD-BTK-207, (R)-1-(5-(1-(1-acryloylpiperidin-3-yl)-7-chloro-1H-pyrazolo[4,3-c]pyridin-3-yl)pyrimidin-2-yl)-4-oxo-1,4-dihydropyridine-3-carboxamide] | 82.6% |  | 
C=CC(=O)N1CC(Cn2nc(-c3ccc(Oc4ccncc4)cc3)c3cncc(Cl)c32)C1 [BCD-BTK-264, 1-(3-((7-chloro-3-(4-(pyridin-4-yloxy)phenyl)-1H-pyrazolo[4,3-c]pyridin-1-yl)methyl)azetidin-1-yl)prop-2-en-1-one] |  | 97.8% | IC50 [3]: 4.92 µM; IC50 [4]: 14.3 µM; CC50 at 72 h [5]: 10.5 µM; CC50 (HepG2)/IC50 (Mino) [6]: 2.13
CC#CC(=O)N1CC[C@H](n2nc(-c3ccc(Oc4ccncc4)cc3)c3cncc(Cl)c32)C1 [BCD-BTK-270, (S)-1-(3-(7-chloro-3-(4-(pyridin-4-yloxy)phenyl)-1H-pyrazolo[4,3-c]pyridin-1-yl)pyrrolidin-1-yl)but-2-yn-1-one] |  | 99.1% | IC50 [3]: 6.79 µM; IC50 [4]: 14.3 µM; CC50 at 72 h [5]: 23.4 µM; CC50 (HepG2)/IC50 (Mino) [6]: 3.45
C=CC(=O)N1CC[C@@H](Cn2nc(-c3ccc(C(=O)Nc4ccccn4)cc3)c3cncc(Cl)c32)C1 [BCD-BTK-284, (R)-4-(1-((1-acryloylpyrrolidin-3-yl)methyl)-7-chloro-1H-pyrazolo[4,3-c]pyridin-3-yl)-N-(pyridin-2-yl)benzamide] |  | 100% | IC50 [3]: 27.9 µM; IC50 [4]: 115 µM; CC50 at 72 h [5]: > 100 µM; CC50 (HepG2)/IC50 (Mino) [6]: >3.59
C=CC(=O)N1CC[C@H](Cn2nc(-c3ccc(C(=O)Nc4ccccn4)cc3)c3cncc(Cl)c32)C1 [BCD-BTK-285, (S)-4-(1-((1-acryloylpyrrolidin-3-yl)methyl)-7-chloro-1H-pyrazolo[4,3-c]pyridin-3-yl)-N-(pyridin-2-yl)benzamide] |  | 100% | IC50 [3]: 10.1 µM; IC50 [4]: > 34.6 µM; CC50 at 72 h [5]: > 100 µM; CC50 (HepG2)/IC50 (Mino) [6]: >9.91

The next lines start with results.

Amount of substance in the sample, % (stability in human blood plasma) [1] | Amount of substance in the sample in % (chemical stability) [2] | Compound | further results
87.3% | 100% | C=CC(=O)N1CCC[C@@H](n2nc(-c3ccc(C(=O)Nc4cc(C(F)(F)CCC)ccn4)cc3)c3cncc(F)c32)C1 [BCD-BTK -247, (R)-4-(1-(1-acryloylpiperidin-3-yl)-7-fluoro-1H-pyrazolo[4,3-c]pyridin-3-yl)-N-(4-(1,1-difluorobutyl)pyridin-2-yl)benzamide] | 
89.2% |  | C=CC(=O)N1CCC[C@@H](n2nc(-c3ccc(C(=O)Nc4cc(C(F)(F)F)ccn4)cc3)c3c(N)ncc(Cl)c32)C1 [BCD-BTK -251, (R)-4-(1-(1-acryloylpiperidin-3-yl)-4-amino-7-chloro-1H-pyrazolo[4,3-c]pyridin-3-yl)-N-(4-(trifluoromethyl)pyridin-2-yl)benzamide] | 
85.2% |  | C=CC(=O)N1CCC[C@@H](n2nc(-c3ccc(C(=O)Nc4cc(C(F)(F)CCC)ccn4)cc3)c3cncc(Cl)c32)C1 [BCD-BTK -252, (R)-4-(1-(1-acryloylpiperidin-3-yl)-7-chloro-1H-pyrazolo[4,3-c]pyridin-3-yl)-N-(4-(1,1-difluorobutyl)pyridin-2-yl)benzamide] | 
93.0% |  | C=CC(=O)N1CCC[C@@H](n2nc(-c3ccc(C(=O)Nc4cc(C(F)(F)CCC)ccn4)cc3)c3c(N)ncc(Cl)c32)C1 [BCD-BTK -254, (R)-4-(1-(1-acryloylpiperidin-3-yl)-4-amino-7-chloro-1H-pyrazolo[4,3-c]pyridin-3-yl)-N-(4-(1,1-difluorobutyl)pyridin-2-yl)benzamide] | 
93.3% |  | C=CC(=O)N1CCC[C@@H](n2nc(-c3cnc(C(=O)Nc4cc(C(F)(F)CCC)ccn4)nc3)c3cncc(Cl)c32)C1 [BCD-BTK -292, (R)-5-(1-(1-acryloylpiperidin-3-yl)-7-chloro-1H-pyrazolo[4,3-c]pyridin-3-yl)-N-(4-(1,1-difluorobutyl)pyridin-2-yl)pyrimidine-2-carboxamide] | 
85.7% |  | C=CC(=O)N1CCC[C@@H](n2nc(-c3cnc(C(=O)Nc4cc(C(F)(F)CC)ccn4)nc3)c3cncc(Cl)c32)C1 [BCD-BTK -293, (R)-5-(1-(1-acryloylpiperidin-3-yl)-7-chloro-1H-pyrazolo[4,3-c]pyridin-3-yl)-N-(4-(1,1-difluoropropyl)pyridin-2-yl)pyrimidine-2-carboxamide] | 
